Where only a bound is given, the exact number is not on record here.

The subject of the first experiment is TNF-α production in LPS-stimulated human whole blood. In words: Inhibition of TNF-α production from human whole blood (hWBA). Type of experiment: cell-based. Conditions: Homo sapiens, IC50 for inhibition of TNF-α production, LPS-stimulated human whole blood; read-out: hWBA.
On to `COc1ccc2c(c1F)C(=O)N(C[C@@]1(C#Cc3ccc(-c4cccc(N5CCOCC5)n4)c(F)c3)NC(=O)NC1=O)C2` [Compound 996], for which the IC50 turned out to be 2560 nM. With `COc1ccc2c(c1)C(=O)N(C[C@@]1(C#Cc3cccc(N4CCSCC4)n3)NC(=O)NC1=O)C2` [Compound 997], the IC50 was 4320 nM. For the compound `COc1ccc2c(c1F)C(=O)N(C[C@@]1(C#Cc3ccc(-c4nc(-c5cccnc5)ccc4O)cc3)NC(=O)NC1=O)C2` [Compound 1001], the IC50 was 106 nM. Same read-out and setting: for `COc1ccc2c(c1F)C(=O)N(C[C@@]1(C#Cc3ccc(-c4nc(-c5cccnc5)ccc4O)c(F)c3)NC(=O)NC1=O)C2` [Compound 1002] the value was 119 nM. Same read-out and setting: for `COc1ccc2c(c1)C(=O)N(C[C@@]1(C#Cc3ccc(-c4cnccc4OC)nc3)NC(=O)NC1=O)C2` [Compound 1105] the value was 5380 nM. The same measure, in the same setting: for `COc1ccc2c(c1)C(=O)N(C[C@@]1(C#Cc3ccc(-n4cnc(CCNC(C)=O)c4)nc3)NC(=O)NC1=O)C2` [Compound 1130] the value was 524 nM. Take `COc1ccc2c(c1)C(=O)N(C[C@@]1(C#Cc3ccc(C4=NCCN4)c(C)c3)NC(=O)NC1=O)C2` [Compound 1140]: the IC50 stood at 504 nM. Regarding `COc1ccc2c(c1)C(=O)N(C[C@@]1(C#Cc3ccc(-n4ccnc4)cc3)NC(=O)NC1=O)C2` [Compound 1160], the IC50 was found to be 786 nM. The same measure, in the same setting: for `COc1ccc2c(c1)C(=O)N(C[C@@]1(C#Cc3ccc(-n4cncn4)cc3)NC(=O)NC1=O)C2` [Compound 1170] the value was 1140 nM; for `COc1ccc2c(c1)C(=O)N(C[C@@]1(C#Cc3ccc(-c4ccc(F)cc4O)nc3)NC(=O)NC1=O)C2` [Compound 1316], 9460 nM; for `COc1ccc2c(c1)C(=O)N(CC1(C#Cc3cccc4c3CCC43NC(=O)NC3=O)NC(=O)NC1=O)C2` (stereo not shown) [Compound 1318], above 1000 nM. On to `COc1ccc2c(c1)C(=O)N(C[C@@]1(C#Cc3nc(-c4cccc(C#N)c4)ccc3OC)NC(=O)NC1=O)C2` [Compound 1501], for which the IC50 is 1e+06 nM. `COc1ccc(N2CCC2=O)nc1C#C[C@]1(CN2Cc3ccc(OC)c(F)c3C2=O)NC(=O)NC1=O` [Compound 1508]: the IC50 came out at 1170 nM. Take `COc1ccc2c(c1)C(=O)N(C[C@@]1(C#Cc3ccc(N4CCCCC4)nc3)NC(=O)NC1=O)C2` [Compound 1509]: the IC50 stood at 514 nM. For `COc1ccc2c(c1F)C(=O)N(C[C@@]1(C#Cc3ccc(C(CN)N4CCC(NC(=O)OC(C)(C)C)C4)cc3)NC(=O)NC1=O)C2` (stereo partly shown) [Compound 1702], the IC50 stood at 303 nM. With `COc1ccc2c(c1)C(=O)N(C[C@@]1(C#Cc3ccc(NC(=O)C4CCN(C)CC4)cc3)NC(=O)NC1=O)C2` [Compound 1909], the IC50 is 78 nM.

Staying with this experiment, now noted: Homo sapiens, read-out: hWBA (nM).
Regarding `COc1ccc2c(c1F)C(=O)N(C[C@@]1(C#Cc3ccc(C4(C#N)CCN(C)CC4)cc3)NC(=O)NC1=O)C2` [Compound 1313], the IC50 stood at 669 nM.

Staying with this experiment, now noted: IC50 for inhibition of TNF-α production, LPS-stimulated human whole blood.
For `COc1ccc2c(c1)C(=O)N(C[C@@]1(C#Cc3ccc(-c4cccc(Cl)c4O)nc3)NC(=O)NC1=O)C2` [Compound 1315], the “hWBA (nM)” value is “Inactive”.

Staying with this experiment, now noted: IC50 for inhibition of TNF-α production, LPS-stimulated human whole blood; read-out: hWBA.
Regarding `COc1ccc2c(c1F)C(=O)N(C[C@@]1(C#Cc3ccc(-c4cccc(N5CCOCC5)n4)cc3)NC(=O)NC1=O)C2` [Compound 995], the IC50 stood at 1640 nM. On to `COc1ccc2c(c1F)C(=O)N(C[C@@]1(C#Cc3ccc(-c4cccc(N5CCSCC5)n4)cc3)NC(=O)NC1=O)C2` [Compound 999], for which the IC50 was 4150 nM. Same read-out and setting: for `COc1ccc2c(c1F)C(=O)N(C[C@@]1(C#Cc3ccc(-c4nc(N5CCC(=O)CC5)ccc4O)cc3)NC(=O)NC1=O)C2` [Compound 1003] the value was 124 nM. Same read-out and setting: for `COc1ccc2c(c1F)C(=O)N(C[C@@]1(C#Cc3ccc(-c4nc(-c5cnn(C)c5)ccc4OC(=O)C(C)(C)C)c(F)c3)NC(=O)NC1=O)C2` [Compound 1006] the value was 68.5 nM. Turning to `COc1ccc2c(c1)C(=O)N(C[C@@]1(C#Cc3ccc(-c4ncccc4OC(=O)C(C)(C)C)cc3)NC(=O)NC1=O)C2` [Compound 1008], the IC50 is 342 nM. On the same count and under the same terms, under `COc1ccc2c(c1F)C(=O)N(C[C@@]1(C#Cc3ccc(-c4ncccc4O)cc3)NC(=O)NC1=O)C2` [Compound 1010] stands 96 nM.

In the case of `COc1ccc2c(c1)C(=O)N(C[C@@]1(C#Cc3ccc(-c4cnccc4C)nc3)NC(=O)NC1=O)C2` [Compound 1100], the IC50 is 2390 nM. Turning to `COc1ccc2c(c1)C(=O)N(C[C@@]1(C#Cc3ccc(C4(CNS(C)(=O)=O)NC(=O)NC4=O)cc3)NC(=O)NC1=O)C2` (stereo partly shown) [Compound 1110], the IC50 is 176 nM. On the same count and under the same terms, for `COc1ccc2c(c1)C(=O)N(C[C@@]1(C#Cc3ccc(-n4cnc(CCNC(C)=O)c4)cc3)NC(=O)NC1=O)C2` [Compound 1120] the value was 453 nM; for `COc1ccc2c(c1)C(=O)N(C[C@@]1(C#Cc3ccc(N4CCNC4=O)cc3)NC(=O)NC1=O)C2` [Compound 1150], 1620 nM; for `COc1ccc2c(c1)C(=O)N(C[C@@]1(C#Cc3ccc(-c4cccc(C)c4O)nc3)NC(=O)NC1=O)C2` [Compound 1300], 3500 nM. Still for that read-out and setting: for `COc1ccc2c(c1)C(=O)N(C[C@@]1(C#Cc3ccc(-c4ccc(C)nc4O)nc3)NC(=O)NC1=O)C2` [Compound 1301] the value was 766 nM; for `COc1ccc2c(c1)C(=O)N(C[C@@]1(C#Cc3ccc(-c4c(C)n[nH]c4N)cc3)NC(=O)NC1=O)C2` [Compound 1303], 488 nM; for `COc1ccc2c(c1F)C(=O)N(C[C@@]1(C#Cc3ccc4c(c3)C3(CC4)NC(=O)NC3=O)NC(=O)NC1=O)C2` (stereo partly shown) [Compound 1304], 367 nM. On the same count and under the same terms, under `COc1ccc2c(c1)C(=O)N(C[C@@]1(C#Cc3ccc(Nc4c(NCCN5CCOCC5)c(=O)c4=O)cc3)NC(=O)NC1=O)C2` [Compound 1306] stands 169 nM; under `COc1ccc2c(c1)C(=O)N(C[C@@]1(C#Cc3ccc(Nc4c(NCCN(C)C)c(=O)c4=O)cc3)NC(=O)NC1=O)C2` [Compound 1307], 161 nM. With `COc1ccc2c(c1)C(=O)N(C[C@@]1(C#Cc3ccc(Nc4c(N)c(=O)c4=O)cc3)NC(=O)NC1=O)C2` [Compound 1308], the IC50 amounted to 306 nM. Take `COc1ccc2c(c1F)C(=O)N(C[C@@]1(C#Cc3ccc(/C(=N/O)N4CCNC[C@@H]4C)c(F)c3)NC(=O)NC1=O)C2` [Compound 1309]: the IC50 turned out to be 42 nM. In the case of `CCN1CCN(/C(=N\O)c2ccc(C#C[C@]3(CN4Cc5ccc(OC)c(F)c5C4=O)NC(=O)NC3=O)cc2F)[C@@H](C)C1` [Compound 1311], the IC50 came to 69 nM. Still for that read-out and setting: under `COc1ccc2c(c1F)C(=O)N(C[C@@]1(C#Cc3cc(F)cnc3Cl)NC(=O)NC1=O)C2` [Compound 1312] stands 935 nM. On the same count and under the same terms, for `COc1ccc2c(c1F)C(=O)N(C[C@@]1(C#Cc3ccc(N4C(=O)NC5(CC5)C4=O)c(F)c3)NC(=O)NC1=O)C2` [Compound 1317] the value was 148 nM; for `CCN1CCN(C(=O)C2CC(=O)N(c3ccc(C#C[C@]4(CN5Cc6ccc(OC)cc6C5=O)NC(=O)NC4=O)cc3)C2)CC1` (stereo partly shown) [Compound 1319], 940 nM.

With `COc1ccc2c(c1)C(=O)N(C[C@@]1(C#Cc3nc(N4CC[C@H](O)C4=O)ccc3OC)NC(=O)NC1=O)C2` [Compound 1504], the IC50 is 3590 nM.

On to `COc1ccc2c(c1)C(=O)N(C[C@@]1(C#Cc3nc(N4C(=O)CCC4C)ccc3OC)NC(=O)NC1=O)C2` (stereo partly shown) [Compound 1506], for which the IC50 worked out at 9540 nM. Still for that read-out and setting: under `COCCN1CCN(c2ccc(OC)c(C#C[C@]3(CN4Cc5ccc(OC)cc5C4=O)NC(=O)NC3=O)n2)CC1` [Compound 1507] stands 5710 nM; under `COc1ccc2c(c1)C(=O)N(C[C@@]1(C#Cc3nc(-c4cnc(N(C)C)nc4)ccc3OC)NC(=O)NC1=O)C2` [Compound 1510], 10000 nM. Still for that read-out and setting: under `COc1ccc2c(c1)C(=O)N(C[C@@]1(C#Cc3nc(-c4ccc(N5CCNCC5)nc4)ccc3OC)NC(=O)NC1=O)C2` [Compound 1511] stands 2050 nM; under `COc1ccc2c(c1)C(=O)N(C[C@@]1(C#Cc3nc(-c4ccc(S(=O)(=O)NC5CC5)cc4)ccc3OC)NC(=O)NC1=O)C2` [Compound 1512], 7040 nM. On the same count and under the same terms, for `COc1ccc2c(c1)C(=O)N(C[C@@]1(C#Cc3ccc(C(CN)N4CCC(NC(=O)OC(C)(C)C)C4)cc3)NC(=O)NC1=O)C2` (stereo partly shown) [Compound 1703] the value was 316 nM; for `COc1ccc2c(c1F)C(=O)N(C[C@@]1(C#Cc3ccc(C(CN)N4CCC(N)C4)cc3)NC(=O)NC1=O)C2` (stereo partly shown) [Compound 1704], 109 nM; for `COc1ccc2c(c1)C(=O)N(C[C@@]1(C#Cc3ccc(C(CN)N4CCC(N)C4)cc3)NC(=O)NC1=O)C2` (stereo partly shown) [Compound 1705], 233 nM.

`COc1ccc2c(c1F)C(=O)N(C[C@@]1(C#Cc3ccc(N4CCNCC4)cc3)NC(=O)NC1=O)C2` [Compound 1706]: the IC50 was 118 nM. With `COc1ccc2c(c1)C(=O)N(C[C@@]1(C#Cc3cncc(-c4ccc(O)c(-c5cn[nH]c5)n4)c3)NC(=O)NC1=O)C2` [Compound 1707], the IC50 was determined as 374 nM. On the same count and under the same terms, for `COc1ccc2c(c1)C(=O)N(C[C@@]1(C#Cc3nc(-c4n[nH]c(=O)n4C4CCN(C)CC4)ccc3OC)NC(=O)NC1=O)C2` [Compound 1900] the value was 2190 nM; for `CCN1CCN(C(=O)C2CCC(=O)N2c2ccc(C#C[C@]3(CN4Cc5ccc(OC)cc5C4=O)NC(=O)NC3=O)cc2)CC1` (stereo partly shown) [Compound 1901], 113 nM; for `CCN1CCN(C(=O)C2CCC(=O)N2c2ccc(C#C[C@]3(CN4Cc5ccc(OC)c(F)c5C4=O)NC(=O)NC3=O)cc2)CC1` (stereo partly shown) [Compound 1903], 152 nM. Still for that read-out and setting: under `COc1ccc2c(c1)C(=O)N(C[C@@]1(C#Cc3ccc(N4C(=O)CCC4C(=O)N4CCN(C)CC4)cc3)NC(=O)NC1=O)C2` (stereo partly shown) [Compound 1905] stands 416 nM; under `COc1ccc2c(c1)C(=O)N(C[C@@]1(C#Cc3ccc(N4C(=O)CCC4(C(=O)O)C(C)(C)O)nc3)NC(=O)NC1=O)C2` (stereo partly shown) [Compound 1906], 578 nM; under `COc1ccc2c(c1F)C(=O)N(C[C@@]1(C#Cc3cncc(NC(=O)C4CCN(C)CC4)c3)NC(=O)NC1=O)C2` [Compound 1907], 86 nM. On the same count and under the same terms, under `COc1ccc2c(c1)C(=O)N(C[C@@]1(C#Cc3cncc(NC(=O)C4CCN(C)CC4)c3)NC(=O)NC1=O)C2` [Compound 1908] stands 299 nM.

The values above are taken from patent US8541572B2.
